The source of these data is patent US11878965B2, “Inhibitors of peptidylarginine deiminases” (Gilead Sciences, Inc., priority 2020, dated 2024).

The structures appear in SMILES notation. pIC50: −log10 of the molar value.

In the experiment the target is human PAD4 (Homo sapiens (Human), UniProt Q9UM07). Nature of the experiment: In Vitro PAD4 BAEE Biochemical Assay. The following applies: human PAD4, BAEE substrate; 5 nM PAD4, 2 mM calcium chloride, 3 mM BAEE; geometric mean of multiple experiments. The method, boiled down: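 Recombinant human PAD4 (His-SUMO tag removed, E. coli-expressed), 5 nM, preincubated with compound and 2 mM CaCl2 30 min at 25 °C in MOPS pH 7.6 with DTT; 3 mM BAEE added for 2 h at 25 °C, EDTA stop. Released ammonia detected by o-phthalaldehyde/DTT fluorescence (ex 405, em 535 nm).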
human PAD4, sequence (Q9UM07 2-663): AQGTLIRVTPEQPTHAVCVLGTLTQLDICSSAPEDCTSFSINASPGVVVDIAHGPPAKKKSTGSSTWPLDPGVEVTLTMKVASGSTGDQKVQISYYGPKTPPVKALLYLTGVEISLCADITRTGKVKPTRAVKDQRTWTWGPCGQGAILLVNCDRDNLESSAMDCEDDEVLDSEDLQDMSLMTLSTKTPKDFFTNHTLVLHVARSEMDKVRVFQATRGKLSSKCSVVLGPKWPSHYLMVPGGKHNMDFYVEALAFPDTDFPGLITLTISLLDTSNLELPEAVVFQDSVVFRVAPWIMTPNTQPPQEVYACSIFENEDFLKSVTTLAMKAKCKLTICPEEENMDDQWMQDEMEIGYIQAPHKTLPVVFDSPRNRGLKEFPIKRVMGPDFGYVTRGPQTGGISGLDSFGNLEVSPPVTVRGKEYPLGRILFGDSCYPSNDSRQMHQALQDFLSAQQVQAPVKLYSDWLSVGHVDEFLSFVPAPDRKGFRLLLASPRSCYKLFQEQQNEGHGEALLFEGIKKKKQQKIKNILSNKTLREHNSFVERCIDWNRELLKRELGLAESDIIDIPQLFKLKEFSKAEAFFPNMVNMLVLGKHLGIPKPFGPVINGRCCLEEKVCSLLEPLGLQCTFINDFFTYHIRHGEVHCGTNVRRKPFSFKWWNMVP
Broadly, the pIC50 is −log10 of the IC50, conventionally taken in molar units. As for `COc1cc(C(=O)N2C[C@H](N)CCN2C)cc2nc(-c3cc4ccc([C@@H](C)NC(=O)Cc5ccccc5)nc4n3CC3CC3)n(C)c12` [Example 158, N-((R)-1-(2-(5-((R)-5-amino-2-methylhexahydropyridazine-1-carbonyl)-7-methoxy-1-methyl-1H-benzo[d]imidazol-2-yl)-1-(cyclopropylmethyl)-1H-pyrrolo[2,3-b]pyridin-6-yl)ethyl)-2-phenylacetamide], the pIC50 was 7.12.
For `COc1cc(C(=O)N2C[C@H](N)CCN2C)cc2nc(-c3cc4ccc([C@@H](C)NC(=O)C(C)(C)c5ccccc5)nc4n3CC3CC3)n(C)c12` [Example 159, N-((R)-1-(2-(5-((R)-5-amino-2-methylhexahydropyridazine-1-carbonyl)-7-methoxy-1-methyl-1H-benzo[d]imidazol-2-yl)-1-(cyclopropylmethyl)-1H-pyrrolo[2,3-b]pyridin-6-yl)ethyl)-2-methyl-2-phenylpropanamide] the value was 6.64; for `COc1cc(C(=O)N2C[C@H](N)CCN2C)cc2nc(-c3cc4ccc([C@@H](C)NC(=O)C5(c6ccccc6)CC5)nc4n3CC3CC3)n(C)c12` [Example 160, N-((R)-1-(2-(5-((R)-5-amino-2-methylhexahydropyridazine-1-carbonyl)-7-methoxy-1-methyl-1H-benzo[d]imidazol-2-yl)-1-(cyclopropylmethyl)-1H-pyrrolo[2,3-b]pyridin-6-yl)ethyl)-1-phenylcyclopropane-1-carboxamide], 6.32; for `COc1cc(C(=O)N2C[C@H](N)CCN2C)cc2nc(-c3cc4ccc([C@@H](C)NC(=O)C(C)(C)C)nc4n3CC3CC3)n(C)c12` [Example 161, N-((R)-1-(2-(5-((R)-5-amino-2-methylhexahydropyridazine-1-carbonyl)-7-methoxy-1-methyl-1H-benzo[d]imidazol-2-yl)-1-(cyclopropylmethyl)-1H-pyrrolo[2,3-b]pyridin-6-yl)ethyl)pivalamide], 7.14.
In the case of `COc1cc(C(=O)N2C[C@H](N)CCN2C)cc2nc(-c3cc4ccc([C@@H](C)NC(=O)C5CC(F)(F)C5)nc4n3CC3CC3)n(C)c12` [Example 162, N-((R)-1-(2-(5-((R)-5-amino-2-methylhexahydropyridazine-1-carbonyl)-7-methoxy-1-methyl-1H-benzo[d]imidazol-2-yl)-1-(cyclopropylmethyl)-1H-pyrrolo[2,3-b]pyridin-6-yl)ethyl)-3,3-difluorocyclobutane-1-carboxamide], the pIC50 was 7.04.
For `COc1cc(C(=O)N2C[C@H](N)CCN2C)cc2nc(-c3cc4ccc([C@@H](C)NC(=O)C5(c6ccc(C(F)(F)F)cc6)CC5)nc4n3CC3CC3)n(C)c12` [Example 163, N-((R)-1-(2-(5-((R)-5-amino-2-methylhexahydropyridazine-1-carbonyl)-7-methoxy-1-methyl-1H-benzo[d]imidazol-2-yl)-1-(cyclopropylmethyl)-1H-pyrrolo[2,3-b]pyridin-6-yl)ethyl)-1-(4-(trifluoromethyl)phenyl)cyclopropane-1-carboxamide] the value was 5.39.
As for `COc1cc(C(=O)N2C[C@H](N)CCN2C)cc2nc(-c3cc4ccc([C@@H](C)NC(=O)[C@H](C)c5ccccc5)nc4n3CC3CC3)n(C)c12` [Example 164, (R)-N-((R)-1-(2-(5-((R)-5-amino-2-methylhexahydropyridazine-1-carbonyl)-7-methoxy-1-methyl-1H-benzo[d]imidazol-2-yl)-1-(cyclopropylmethyl)-1H-pyrrolo[2,3-b]pyridin-6-yl)ethyl)-2-phenylpropanamide], the figure is 6.83; as for `COc1cc(C(=O)N2C[C@H](N)CCN2C)cc2nc(-c3cc4ccc([C@@H](C)NC(=O)[C@@H](C)c5ccccc5)nc4n3CC3CC3)n(C)c12` [Example 165, (S)-N-((R)-1-(2-(5-((R)-5-amino-2-methylhexahydropyridazine-1-carbonyl)-7-methoxy-1-methyl-1H-benzo[d]imidazol-2-yl)-1-(cyclopropylmethyl)-1H-pyrrolo[2,3-b]pyridin-6-yl)ethyl)-2-phenylpropanamide], 7.04; as for `COc1cc(C(=O)N2C[C@H](N)CCN2C)cc2nc(-c3cc4ccc([C@@H](C)NC(=O)c5ccccc5C(F)F)nc4n3CC3CC3)n(C)c12` [Example 166, N-((R)-1-(2-(5-((R)-5-amino-2-methylhexahydropyridazine-1-carbonyl)-7-methoxy-1-methyl-1H-benzo[d]imidazol-2-yl)-1-(cyclopropylmethyl)-1H-pyrrolo[2,3-b]pyridin-6-yl)ethyl)-2-(difluoromethyl)benzamide], 6.74.
Consider `COc1cc(C(=O)N2C[C@H](N)CCN2C)cc2nc(-c3cc4ccc([C@@H](C)NC(=O)C(F)(F)c5ccccc5)nc4n3CC3CC3)n(C)c12` [Example 167, N-((R)-1-(2-(5-((R)-5-amino-2-methylhexahydropyridazine-1-carbonyl)-7-methoxy-1-methyl-1H-benzo[d]imidazol-2-yl)-1-(cyclopropylmethyl)-1H-pyrrolo[2,3-b]pyridin-6-yl)ethyl)-2,2-difluoro-2-phenylacetamide], for which the pIC50 was 6.41.
For `COc1cc(C(=O)N2C[C@H](N)CCN2C)cc2nc(-c3cc4ccc([C@@H](C)NC(=O)[C@@H]5CC5(F)F)nc4n3CC3CC3)n(C)c12` [Example 168, (S)-N-((R)-1-(2-(5-((R)-5-amino-2-methylhexahydropyridazine-1-carbonyl)-7-methoxy-1-methyl-1H-benzo[d]imidazol-2-yl)-1-(cyclopropylmethyl)-1H-pyrrolo[2,3-b]pyridin-6-yl)ethyl)-2,2-difluorocyclopropane-1-carboxamide] the value was 6.99.
Regarding `COc1cc(C(=O)N2C[C@H](N)CCN2C)cc2nc(-c3cc4ccc([C@@H](C)NC(=O)c5cnn(C)c5)nc4n3CC3CC3)n(C)c12` [Example 169, N-((R)-1-(2-(5-((R)-5-amino-2-methylhexahydropyridazine-1-carbonyl)-7-methoxy-1-methyl-1H-benzo[d]imidazol-2-yl)-1-(cyclopropylmethyl)-1H-pyrrolo[2,3-b]pyridin-6-yl)ethyl)-1-methyl-1H-pyrazole-4-carboxamide], the pIC50 was 7.32.
For `COc1cc(C(=O)N2C[C@H](N)CCN2C)cc2nc(-c3cc4ccc([C@@H](C)NC(=O)c5cnn(C(F)F)c5)nc4n3CC3CC3)n(C)c12` [Example 170, N-((R)-1-(2-(5-((R)-5-amino-2-methylhexahydropyridazine-1-carbonyl)-7-methoxy-1-methyl-1H-benzo[d]imidazol-2-yl)-1-(cyclopropylmethyl)-1H-pyrrolo[2,3-b]pyridin-6-yl)ethyl)-1-(difluoromethyl)-1H-pyrazole-4-carboxamide] the value was 7.17; for `COc1cc(C(=O)N2C[C@H](N)CCN2C)cc2nc(-c3cc4ccc([C@@H](C)NC(=O)C56CC(F)(C5)C6)nc4n3CC3CC3)n(C)c12` [Example 171, N-((R)-1-(2-(5-((R)-5-amino-2-methylhexahydropyridazine-1-carbonyl)-7-methoxy-1-methyl-1H-benzo[d]imidazol-2-yl)-1-(cyclopropylmethyl)-1H-pyrrolo[2,3-b]pyridin-6-yl)ethyl)-3-fluorobicyclo[1.1.1]pentane-1-carboxamide], 7.04; for `COc1cc(C(=O)N2C[C@H](N)CCN2C)cc2nc(-c3cc4ccc([C@@H](C)NC(=O)c5c(C)cccc5C)nc4n3CC3CC3)n(C)c12` [Example 172, N-((R)-1-(2-(5-((R)-5-amino-2-methylhexahydropyridazine-1-carbonyl)-7-methoxy-1-methyl-1H-benzo[d]imidazol-2-yl)-1-(cyclopropylmethyl)-1H-pyrrolo[2,3-b]pyridin-6-yl)ethyl)-2,6-dimethylbenzamide], 6.83.
For `COc1cc(C(=O)N2[C@H]3CC[C@@H]2[C@H](N)C3)cc2nc(-c3cc4ccc([C@@H](C)NC(=O)C5(n6cccn6)CC5)nc4n3CC3CC3)n(C)c12` [Example 173, N-((R)-1-(2-(5-((1R,2R,4S)-2-amino-7-azabicyclo[2.2.1]heptane-7-carbonyl)-7-methoxy-1-methyl-1H-benzo[d]imidazol-2-yl)-1-(cyclopropylmethyl)-1H-pyrrolo[2,3-b]pyridin-6-yl)ethyl)-1-(1H-pyrazol-1-yl)cyclopropane-1-carboxamide] the value was 7.01; for `COc1cc(C(=O)N2[C@H]3CC[C@@H]2[C@H](N)C3)cc2nc(-c3cc4ccc([C@@H](C)NC(=O)Cn5cccn5)nc4n3CC3CC3)n(C)c12` [Example 174, N-((R)-1-(2-(5-((1R,2R,4S)-2-amino-7-azabicyclo[2.2.1]heptane-7-carbonyl)-7-methoxy-1-methyl-1H-benzo[d]imidazol-2-yl)-1-(cyclopropylmethyl)-1H-pyrrolo[2,3-b]pyridin-6-yl)ethyl)-2-(1H-pyrazol-l-yl)acetamide], 7.35.
For `COc1cc(C(=O)N2C[C@H](N)CCN2C)cc2nc(-c3cc4ccc([C@@H](C)NC(=O)c5ncccc5C)nc4n3CC3CC3)n(C)c12` [Example 175, N-((R)-1-(2-(5-((R)-5-amino-2-methylhexahydropyridazine-1-carbonyl)-7-methoxy-1-methyl-1H-benzo[d]imidazol-2-yl)-1-(cyclopropylmethyl)-1H-pyrrolo[2,3-b]pyridin-6-yl)ethyl)-3-methylpicolinamide] the value was 6.86.
As to `COc1cc(C(=O)N2C[C@H](N)CCN2C)cc2nc(-c3cc4ccc([C@@H](C)NC(=O)c5nc(C)ccc5C)nc4n3CC3CC3)n(C)c12` [Example 176, N-((R)-1-(2-(5-((R)-5-amino-2-methylhexahydropyridazine-1-carbonyl)-7-methoxy-1-methyl-1H-benzo[d]imidazol-2-yl)-1-(cyclopropylmethyl)-1H-pyrrolo[2,3-b]pyridin-6-yl)ethyl)-3,6-dimethylpicolinamide], the pIC50 was 6.64.
